From US8575193B2, “N-substituted tetrahydroisoquinoline/isoindoline hydroxamic acid compounds” (4SC AG, priority 2008, dated 2013)
Where a name gives a salt, the structure may show the parent alone.

Columns and labels:
[1] = Cellular cytotoxicity assay (Alamar Blue/Resazurin), RKOp21; format: cell-based; conditions: human, RKOp21 cells; RKOp21, 72 hours incubation, Resazurin; read-out: RKOp21 Cytotoxicity [pIC50] (converted)
Description: The anti-proliferative activity of the compounds as described herein, is evaluated with various solid and hematological cancer cell lines using the Alamar Blue (Resazurin) cell viability assay (O'Brien et al, Eur J Biochem 267, 5421-5426, 2000). Resazurin is reduced to the fluorescent resorufin by cellular dehydrogenase activity, correlating with viable, proliferating cells. Test compounds are dissolved as 20 mM solutions in dimethylsulfoxide (DMSO) and subsequently diluted in semi-logarithmic steps. The cancer cell lines are seeded into 96 well flat bottom plates at respective cell densities in a volume of 200 μl per well to allow continuous proliferation during the experiment. 24 hours after seeding 1 μl each of the compound dilutions is added into each well of the 96 well plate. Wells containing untreated control cells are filled with 200 μl DMEM medium containing 0.5% v:v DMSO. The cells are then incubated with the substances for 72 hours at 37° C. in a humidified atmosphere containing 5% carbon dioxide. To determine the viability of the cells, 20 μl of a Resazurin solution (Sigma; 90 mg/l) are added. After 4 hours incubation at 37° C. the fluorescence is measured at an extinction of 544 nm and an emission of 590 nm. For the calculation of the cell viability the emission value from untreated cells is set as 100% viability and the emission rates of treated cells are set in relation to the values of untreated cells. Viabilities are expressed as % values. The corresponding pIC50 values of the compounds for cytotoxic activity are determined from the concentration-effect curves by means of non-linear regression.

[2] = system: nuclear HeLa extract (mixture of class I and II HDACs); assay: Fluorimetric HDAC activity assay with nuclear HeLa extract; format: biochemical, human; conditions: nuclear HeLa extract inhibitory activity, substrate Ac-NH-GGK(Ac)-AMC 25 μM, 90 min at 30° C.
Description: HDAC activity is isolated from nuclear HeLa extracts according to a method original described by Dignam et al. (Nucl. Acids Res. 11, pp 1475, 1983). Briefly, nuclei isolated from HeLa cells (CIL SA, Seneffe, Belgium) are resuspended in buffer C (20 mM Hepes pH 7.9, 25% v:v glycerol, 0.42M NaCl, 1.5 mM MgCl2, 0.2 mM EDTA, 0.5 mM PefaBloc and 0.5 mM DTT) and stirred for 30 min on ice. After centrifugation, the supernatant is dialysed against buffer D (40 mM Tris HCl pH 7.4, 100 mM KCl, 0.2 mM EDTA, 0.5 mM DTT and 25% v:v glycerol) for 5 h at 4° C. After dialysis and centrifugation, the supernatant is stored in aliquots at −80° C. and used for Western blot analysis as well as the enzymatic assay as described in the following.
The HDAC enzyme activity assay is done as described by Wegener et al. (Chem. & Biol. 10, 61-68, 2003). […] After incubation at room temperature for further 40 min, fluorescence is measured using a Wallac Victor 1420 multilabel counter (Ex 355 nm, Em 460 nm) for quantification of AMC (7-amino-4-methylcoumarin) generated by trypsine cleavage of the deacetylated peptide. […] The corresponding pIC50 values of the compounds for HDAC inhibitory activity are determined from the concentration-effect curves by means of non-linear regression (Graphpad Prism software).

SMILES	IC50 at 72 h [1]	further results
CN(C)CCCC(=O)N1CCc2cc(C(=O)NO)ccc2C1 [Example 9, 2-[4-(Dimethylamino)butanoyl]-N-hydroxy-1,2,3,4-tetrahydroisoquinoline-6-carboxamide hydrochloride]	> 100 µM	
O=C(NO)c1ccc2c(c1)CCN(C(=O)C1CCOC1)C2 (centres unmarked) [Example 13, N-Hydroxy-2-(tetrahydrofuran-3-ylcarbonyl)-1,2,3,4-tetrahydroisoquinoline-6-carboxamide]	> 100 µM	
O=C(NO)c1ccc2c(c1)CCN(C(=O)C1CCC1)C2 [Example 3, 2-(Cyclobutylcarbonyl)-N-hydroxy-1,2,3,4-tetrahydroisoquinoline-6-carboxamide]	> 100 µM	
O=C(NO)c1ccc2c(c1)CN(C(=O)C1CCOC1)CC2 (centres unmarked) [Example 20, N-Hydroxy-2-(tetrahydrofuran-3-ylcarbonyl)-1,2,3,4-tetrahydroisoquinoline-7-carboxamide]	> 100 µM	
O=C(NO)c1ccc2c(c1)CCN(C(=O)C1CC1)C2 [Example 16, N-Hydroxy-2-(cyclopropylcarbonyl)-1,2,3,4-tetrahydroisoquinoline-6-carboxamide]		melting point: 90 °C
COc1ccc2[nH]c(C(=O)N3CCc4ccc(C(=O)NO)cc4C3)cc2c1 [Example 24, N-Hydroxy-2-[(5-methoxy-1H-indol-2-yl)carbonyl]-1,2,3,4-tetrahydroisoquinoline-7-carboxamide]	1 to 100 µM	
O=C(NO)c1ccc2c(c1)CCN(C(=O)Cc1c[nH]c3ccccc13)C2 [Example 1, N-Hydroxy-2-(indol-3-ylacetyl)-1,2,3,4-tetrahydroisoquinoline-6-carboxamide hydrochloride]	1 to 100 µM	
CNC(=O)N1CCc2cc(C(=O)NO)ccc2C1 [Example 4, N6-Hydroxy-N2-methyl-3,4-dihydroisoquinoline-2,6(1H)-dicarboxamide]	> 100 µM	
COc1ccc2[nH]c(C(=O)N3CCc4cc(C(=O)NO)ccc4C3)cc2c1 [Example 15, N-Hydroxy-2-[(5-methoxy-1H-indol-2-yl)carbonyl]-1,2,3,4-tetrahydroisoquinoline-6-carboxamide]		HeLa nuclear extract [pIC50] ([2]; listed as Ex. 15): 6.10; melting point: 156 °C
COCCOCC(=O)N1CCc2cc(C(=O)NO)ccc2C1 [Example 11, N-Hydroxy-2-[(2-methoxyethoxy)acetyl]-1,2,3,4-tetrahydroisoquinoline-6-carboxamide]		HeLa nuclear extract [pIC50] ([2]; listed as Ex. 11): 4.22
O=C(NO)c1ccc2c(c1)CCN(C(=O)Cc1cccnc1)C2 [Example 8, N-Hydroxy-2-(pyridin-3-ylacetyl)-1,2,3,4-tetrahydroisoquinoline-6-carboxamide hydrochloride]	> 100 µM	
COCCCNC(=O)N1CCc2cc(C(=O)NO)ccc2C1 [Example 5, N6-Hydroxy-N2-(3-methoxypropyl)-3,4-dihydroisoquinoline-2,6(1H)-dicarboxamide]	> 100 µM	
COCCCOC(=O)N1CCc2cc(C(=O)NO)ccc2C1 [Example 6, 3-Methoxypropyl-6-(hydroxycarbamoyl)-3,4-dihydroisoquinoline-2(1H)-carboxylate]	> 100 µM	
